Source: patent US6831104B2, “Insect pest eradication system” (priority 2000, dated 2004)
Where two headings read alike, the source gives them in different places.

Key:
[1] = test system: active fire ant colonies; assay: Test 7: methanol alone; trans-dichloroethylene/methanol solution then Diazinon solution; assay type: in vivo, Red Fire Ant; details: for fire ant activity upon surface of mound: upon wetting first mound (about 5 inches) with the alcohol alone
Procedure: In the seventh test, active fire ant colonies were treated with methanol and then with a mixture of methanol plus trans-dichloroethylene. Additionally, an aqueous Diazinon® solution was applied to a targeted mound following application of the latter mixture. First, an active fire ant mound, approximately 5 inches in diameter, was treated with enough methanol to wet the surface of the mound. […] Then a solution of three parts methanol to one part trans-dichloroethylene was applied to the surface of a second fire ant mound approximately 8 inches in diameter. […] After five minutes, the second mound was pierced in several places with a steel shaft. A Diazinon® solution was then applied to the mound. At no time were ants observed exiting the second mound.

[2] = test system: live fire ant colony; assay: Test 8: ethanol and water; trans-dichloroethylene/ethanol solution then Diazinon solution; set-up: species or system Red Fire Ant; details: in vivo
Excerpt: In eighth and ninth tests, the method of the seventh test was duplicated using two other alcohols, namely ethanol and isopropanol.

[3] = test system: fire ant colony; assay: Test 1: trans-dichloroethylene/vegetable oil mixture poured on fire ant colony in 2-gallon flowerpot; assay type: in vivo, Red Fire Ant
Procedure: These tests were conducted on active fire ant mounds located primarily upon an acre tract of residential property in Lake Charles, La.
In the first test, a mixture of 1 part trans-dichloroethylene to 2 parts vegetable oil (liquid Crisco® brand vegetable oil) was used. A fire ant colony that had established itself within a 2-gallon flowerpot was treated with approximately 1 cup of a trans-dichloroethylene/vegetable oil mixture. The technique involved pouring the liquid mixture onto the surface of the targeted fire ant mound. Observations of fire ant activity were made upon application and following application of the mixture. Afterward, the contents of the infested flower pot were emptied upon a flat, ply-wood surface and dissected. The following results of individual fire ant activity within the treated soil were observed: […]

[4] = test system: active fire ant mound; assay: General experimental method: knockout agent mixture then insecticide on fire ant mound, excavation of plugs; assay type: in vivo, Red Fire Ant; details: applied superficially to a fire ant mound
Excerpt: The experimental method used herein entailed first preparing a mixture of 1 part trans-dichloroethylene (knockout agent) and 2 parts vegetable oil (liquid Crisco® was the vegetable oil most often used in the test) and then applying the mixture to the surface of an active fire ant mound 12 inches or less in surface diameter. The oil with the knockout agent is preferably biodegradable and miscible with the knockout agent. Units of measure are in pints, with the mixture comprising approximately ½ pint trans-dichloroethylene for every pint of vegetable oil. Approximately one-quarter (¼) pint of the trans-dichloroethylene/vegetable oil mixture was applied to a fire-ant hill about 12-inches in surface diameter.
The next step entailed applying a suitable insecticide to the fire ant mound. The insecticide was a commercially available Diazinon® applied one of two forms onto a fire ant mound that had been treated with the trans-dichloroethylene mixture. […]
Following all of these tests, the targeted fire ant colonies were excavated in the form of plugs. These “plugs” of excavated earth that had comprised the fire ant colony measured about 12″×12″×12. […] Hundreds, if not thousands, of dead individual worker ants, dead ant larvae and eggs were detected. […]

[5] = test system: live fire ant colony; details: in vivo

Structure (SMILES): CO [methanol]
- knock out of fire ants within a targeted mound (conclusion) ([1]; in vivo): does not serve to knockout fire ants
- fire ant activity upon surface of mound [1]: observed exiting the mound
- fire ant activity upon surface of mound ([1]; listed as pure ethanol): Significant fire ant activity

Structure (SMILES): CCO [anhydrous ethanol, ethanol]
- knock out of fire ants within a targeted mound (conclusion) [2]: neither serves to knock out fire ants

Structure (SMILES): Cl/C=C/Cl [trans-dichloroethylene]
- toxicity to fire ants (conclusion) ([3]; small dosages, short periods of exposure): not itself toxic to fire ants
- evaporation from treated soil ([3]; treated soil exposed to the open air): rapidly evaporates
- incapacitation of individual insects in targeted fire ant mound [4]: completely incapacitated

Structure (SMILES): CC(C)O [anhydrous isopropanol, isopropanol]
- knock out of fire ants within a targeted mound (conclusion) [5]: neither serves to knock out fire ants
